The series deals with hERG ion channel (Homo sapiens, UniProt Q12809). As to the kind of experiment: hERG ion channel inhibition experiment (manual patch clamp, HEK293). Format: cell-based. As to conditions: HEK293 cells stably expressing hERG, n=2. As for the experimental part: III. hERG Ion Channel Inhibition Experiment
The compounds used in this experiment are specific embodiments of the present invention, with reference to compound AMG473 as an example from Amgen's patent WO 2022/169948A1, identified as example 473.
2. Cell Line and Cell Culture
Stably expressing hERG ion channel HEK293 cell line (Catalog: K1236) was purchased from Invitrogen. This cell line was cultured in a medium containing 85% DMEM, 10% dialyzed fetal bovine serum, 0.1 mM non-essential amino acid solution, 100 U/mL penicillin-streptomycin solution, 25 mM HEPES, 5 µg/mL blasticidin, and 400 µg/mL geneticin. […]
• 1) Place glass slides containing HEK293 cells in the perfusion chamber of the micro-manipulation station. • 2) Under an Olympus IX71 or IX73 inverted microscope, position suitable cells in the central field of view using a ×10 objective. […] The peak of the tail current represents the size of the hERG current. • 9) The hERG current induced by the test compound is continuously recorded for 120 seconds before administration to assess the stability of the tested cells in producing hERG currents. […] Record the last 5 hERG current values after the recorded current stabilizes, and take their average as the final current value at a specific concentration. […]

pIC50: −log10 of the molar value.

Sequence of hERG ion channel (Q12809 whole entry): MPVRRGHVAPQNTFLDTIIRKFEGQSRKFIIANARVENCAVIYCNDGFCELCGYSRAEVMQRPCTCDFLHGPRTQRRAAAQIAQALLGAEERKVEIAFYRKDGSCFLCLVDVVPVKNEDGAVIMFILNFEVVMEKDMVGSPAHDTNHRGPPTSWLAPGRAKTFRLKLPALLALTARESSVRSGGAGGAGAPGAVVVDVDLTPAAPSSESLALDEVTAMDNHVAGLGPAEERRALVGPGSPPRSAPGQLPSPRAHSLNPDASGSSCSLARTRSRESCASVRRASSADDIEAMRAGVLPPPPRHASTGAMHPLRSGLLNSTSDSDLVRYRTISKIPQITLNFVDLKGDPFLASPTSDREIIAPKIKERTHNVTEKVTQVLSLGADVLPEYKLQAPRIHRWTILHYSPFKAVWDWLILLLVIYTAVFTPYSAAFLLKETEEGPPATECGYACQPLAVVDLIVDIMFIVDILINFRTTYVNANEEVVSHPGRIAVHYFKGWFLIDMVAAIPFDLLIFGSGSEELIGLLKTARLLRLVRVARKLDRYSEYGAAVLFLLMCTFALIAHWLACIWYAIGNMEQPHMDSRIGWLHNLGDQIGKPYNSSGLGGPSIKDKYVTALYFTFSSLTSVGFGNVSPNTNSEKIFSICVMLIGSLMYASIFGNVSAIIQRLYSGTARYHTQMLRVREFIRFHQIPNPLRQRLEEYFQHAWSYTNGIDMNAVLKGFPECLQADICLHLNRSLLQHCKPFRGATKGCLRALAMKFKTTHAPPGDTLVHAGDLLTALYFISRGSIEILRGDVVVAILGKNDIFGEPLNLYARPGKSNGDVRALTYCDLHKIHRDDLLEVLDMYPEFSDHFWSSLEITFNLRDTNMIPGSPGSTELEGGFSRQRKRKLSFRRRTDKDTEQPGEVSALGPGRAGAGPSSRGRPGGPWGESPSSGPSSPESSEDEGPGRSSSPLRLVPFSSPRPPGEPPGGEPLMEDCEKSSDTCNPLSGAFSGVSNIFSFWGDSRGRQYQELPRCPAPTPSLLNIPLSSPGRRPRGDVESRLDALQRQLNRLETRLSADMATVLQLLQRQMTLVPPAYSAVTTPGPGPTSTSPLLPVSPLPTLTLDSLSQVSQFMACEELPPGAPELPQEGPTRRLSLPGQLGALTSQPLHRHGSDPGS

By pIC50 is commonly meant the IC50 on a negative log10 scale, so that one unit is a factor of ten. Read a high pIC50 as a small IC50. Turning to “(S)-4-amino-7-fluoro-N-methyl-N-(6-(triflu oromethyl)-2,3-dihydr obenzofuran-3-yl)imi dazo[1,5-a]quinoxalin e-8-carboxamide [Example 29]”, the pIC50 is 4.94.

Values taken from patent EP4775208A1, “USE OF PRMT5 INHIBITOR IN TREATMENT OF TUMORS OR CANCERS” (Apeiron Therapeutics (Hong Kong) Ltd., priority 2023, dated 2025).
